According to ChEMBL document CHEMBL5634121, “Discovery of novel G9a/GLP covalent inhibitors for the treatment of triple-negative breast cancer” (Eur J Med Chem, 2023):

Experiments:
[1] = test system: MDA-MB-231; assay: Induction of apoptosis in human MDA-MB-231 cells assessed as late apoptotic cells at 20 uM incubated for 72 hrs by Annexin V and PI staining based flow cytometry analysis (reference value: 0.45 %); format: functional
[2] = Mean residence time in ICR mouse at 2 mg/kg, iv measured upto 12 hrs by LC-MS/MS analysis; format: ADME, organism-based; details: in vivo
[3] = Tmax in ICR mouse at 2 mg/kg, iv measured upto 12 hrs by LC-MS/MS analysis; format: ADME, organism-based; details: in vivo
[4] = Cytotoxicity against human L02 cells assessed as reduction in cell viability incubated for 2 days by MTT assay; format: toxicity, cell-based
[5] = test system: 4T1; assay: Antiproliferative activity against mouse 4T1 cells incubated for 3 to 5 days by MTT assay; format: functional, cell-based; details: Mus musculus, 4T1; read-out: IC50
[6] = test system: MDA-MB-231; assay: Induction of apoptosis in human MDA-MB-231 cells assessed as necrotic cells at 5 uM incubated for 72 hrs by Annexin V and PI staining based flow cytometry analysis (reference value: 0.32 %); format: functional
[7] = Cmax in ICR mouse at 2 mg/kg, iv measured upto 12 hrs by LC-MS/MS analysis; format: ADME, organism-based; details: in vivo
[8] = test system: MDA-MB-231; assay: Induction of apoptosis in human MDA-MB-231 cells assessed as early apoptotic cells at 10 uM incubated for 72 hrs by Annexin V and PI staining based flow cytometry analysis (reference value: 0.92 %); format: functional
[9] = molecular target: Histone-lysine N-methyltransferase EHMT1/EHMT2 (Homo sapiens) (UniProt Q9H9B1+Q96KQ7); assay: Inhibition of G9a/GLP in human MDA-MB-231 cells assessed as reduction in H3K9 dimethylation incubated for 3 days by Western blotting analysis; format: cell-based; details: dose 2.5-20 µM, time 3.0 day
[10] = test system: MDA-MB-231; assay: Induction of apoptosis in human MDA-MB-231 cells assessed as necrotic cells at 20 uM incubated for 72 hrs by Annexin V and PI staining based flow cytometry analysis (reference value: 0.32 %); format: functional
[11] = molecular target: T1, Histone-lysine N-methyltransferase EHMT2 (Homo sapiens) (UniProt Q96KQ7); assay: Inhibition of G9a (unknown origin) at 1 uM by AlphaLISA immunodetection assay relative to control
T1 sequence (whole entry): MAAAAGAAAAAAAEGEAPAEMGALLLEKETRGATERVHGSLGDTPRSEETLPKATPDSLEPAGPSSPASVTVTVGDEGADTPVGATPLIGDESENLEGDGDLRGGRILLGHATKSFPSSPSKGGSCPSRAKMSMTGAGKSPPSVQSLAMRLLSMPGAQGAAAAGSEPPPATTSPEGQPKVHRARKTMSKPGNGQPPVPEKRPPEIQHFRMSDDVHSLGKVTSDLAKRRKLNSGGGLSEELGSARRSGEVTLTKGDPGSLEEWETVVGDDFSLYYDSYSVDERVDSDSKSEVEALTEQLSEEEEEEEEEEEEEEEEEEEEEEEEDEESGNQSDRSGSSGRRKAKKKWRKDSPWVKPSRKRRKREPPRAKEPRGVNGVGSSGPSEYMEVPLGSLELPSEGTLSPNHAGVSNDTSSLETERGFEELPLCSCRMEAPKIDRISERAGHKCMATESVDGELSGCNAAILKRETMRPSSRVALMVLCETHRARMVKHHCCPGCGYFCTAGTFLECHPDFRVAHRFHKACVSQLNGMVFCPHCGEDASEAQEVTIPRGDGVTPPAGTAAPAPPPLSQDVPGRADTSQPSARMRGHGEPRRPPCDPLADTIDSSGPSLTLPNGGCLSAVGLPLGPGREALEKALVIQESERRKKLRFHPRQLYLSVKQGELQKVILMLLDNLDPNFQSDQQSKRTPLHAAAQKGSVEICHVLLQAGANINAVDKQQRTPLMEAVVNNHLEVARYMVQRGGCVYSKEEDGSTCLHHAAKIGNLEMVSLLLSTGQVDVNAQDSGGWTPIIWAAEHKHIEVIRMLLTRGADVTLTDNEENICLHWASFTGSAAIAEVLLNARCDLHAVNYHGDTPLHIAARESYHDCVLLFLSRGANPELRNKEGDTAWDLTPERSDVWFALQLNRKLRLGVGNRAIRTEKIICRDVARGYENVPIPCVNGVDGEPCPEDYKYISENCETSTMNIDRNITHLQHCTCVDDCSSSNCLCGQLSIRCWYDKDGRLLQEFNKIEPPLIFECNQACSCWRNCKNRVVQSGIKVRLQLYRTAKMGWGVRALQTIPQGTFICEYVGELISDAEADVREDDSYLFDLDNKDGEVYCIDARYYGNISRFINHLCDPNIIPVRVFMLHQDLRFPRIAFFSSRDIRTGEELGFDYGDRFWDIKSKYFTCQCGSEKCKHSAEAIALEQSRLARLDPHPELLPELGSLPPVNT

Chain of Histone-lysine N-methyltransferase EHMT1/EHMT2 (Homo sapiens) (Q9H9B1 whole entry, looked up, one chain of several): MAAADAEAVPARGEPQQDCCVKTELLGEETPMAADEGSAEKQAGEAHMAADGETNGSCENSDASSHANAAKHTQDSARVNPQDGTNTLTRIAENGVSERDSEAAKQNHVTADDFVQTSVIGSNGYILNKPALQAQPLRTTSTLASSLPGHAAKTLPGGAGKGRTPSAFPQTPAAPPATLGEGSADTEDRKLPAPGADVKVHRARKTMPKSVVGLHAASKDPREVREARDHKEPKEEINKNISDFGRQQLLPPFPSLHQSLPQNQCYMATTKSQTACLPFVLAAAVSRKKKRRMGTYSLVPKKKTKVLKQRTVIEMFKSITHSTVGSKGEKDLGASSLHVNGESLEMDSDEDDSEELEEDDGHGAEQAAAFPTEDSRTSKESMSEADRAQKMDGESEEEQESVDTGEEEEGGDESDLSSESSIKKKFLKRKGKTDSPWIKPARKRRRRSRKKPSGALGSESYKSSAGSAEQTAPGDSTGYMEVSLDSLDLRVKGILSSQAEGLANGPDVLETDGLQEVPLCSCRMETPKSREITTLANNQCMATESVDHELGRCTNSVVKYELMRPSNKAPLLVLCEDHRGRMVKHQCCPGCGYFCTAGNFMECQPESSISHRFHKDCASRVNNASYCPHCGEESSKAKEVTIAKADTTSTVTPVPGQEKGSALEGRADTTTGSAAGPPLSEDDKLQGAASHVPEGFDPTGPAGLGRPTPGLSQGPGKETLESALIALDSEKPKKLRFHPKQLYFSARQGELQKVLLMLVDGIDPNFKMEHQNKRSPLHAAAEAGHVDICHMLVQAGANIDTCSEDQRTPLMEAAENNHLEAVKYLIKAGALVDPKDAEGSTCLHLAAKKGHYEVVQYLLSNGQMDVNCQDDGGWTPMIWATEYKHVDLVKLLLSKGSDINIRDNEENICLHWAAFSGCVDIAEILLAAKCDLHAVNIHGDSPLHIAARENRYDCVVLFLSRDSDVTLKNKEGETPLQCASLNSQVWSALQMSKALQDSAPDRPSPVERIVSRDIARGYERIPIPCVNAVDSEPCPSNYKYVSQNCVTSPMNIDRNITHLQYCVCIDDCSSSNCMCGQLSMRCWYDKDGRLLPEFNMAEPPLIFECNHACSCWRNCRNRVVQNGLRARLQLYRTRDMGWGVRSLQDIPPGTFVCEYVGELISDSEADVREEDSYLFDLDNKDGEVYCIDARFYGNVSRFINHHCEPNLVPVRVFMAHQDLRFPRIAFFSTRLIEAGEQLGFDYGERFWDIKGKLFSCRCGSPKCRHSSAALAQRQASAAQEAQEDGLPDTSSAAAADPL

MRT [2]: 2.3 h
Tmax [3]: 0.42 h
IC50 [5]: 4.67 µM
Cmax [7]: 911 ng/mL
inhibition [9]: Dose-Dependent Effect
inhibition [11]: 96%
Structure (SMILES): C=CC(=O)Nc1cccc(-c2nc(NC3CCN(C)CC3)c3cc(OC)c(OC)cc3n2)c1
Activity [1]: 34.86%
IC50 at 2 days [4]: 10.3 µM
Activity [6]: 0.93%
Activity [8]: 3.7%
Activity [10]: 4.23%
